In US6965048B2, “Hydroxyalkylamide derivatives” (Hoffmann-La Roche Inc., priority 2003, dated 2005):

melting point: 162 to 165 °C (dec.)
Structure (SMILES): CN(CC[C@H]1CC[C@H](C(=O)N2CCC(C(N)=O)CC2)CC1)C(=O)Oc1ccc(Cl)cc1
